# Results from US20130302782A1, “Methods for the Phenotypic Detection of HCV Inhibitor Resistant Subpopulations” (Laboratory Corporation of America Holdings, priority 2011, published 2013).
# Tested on: HCV replicon RTVs containing the NS5B region of Con1 or H77 reference and SDM mutants
# Assay: PhenoSense HCV NS5B Assay: luciferase replicon resistance test vector inhibitor susceptibility in Huh7 cells
# Format: cell-based, hepatitis C virus
# Details: MT:WT RTV mixtures 0-100% mutant; control inhibitor
# Description: RTV RNA was electroporated into a Huh7 cell line, and electroporated cells were incubated in the absence and presence of serially diluted inhibitors. RNA input was monitored by measuring the amount of luciferase activity produced in the electroporated cells at 4 hours post-electroporation. Luciferase activity is expressed as relative light units (RLU). Replication capacity (RC) was determined by evaluating luciferase activity at 72-96 hours postelectroporation in the absence of inhibitor, relative to RNA input and a control reference replicon RTV (Con1). A replication defective Con1 replicon (Con1 polymerase defective) was utilized to determine assay background (data not shown) Inhibitor susceptibility was determined by evaluating the ability of RTVs to replicate in the absence and presence of inhibitor at 72-96 hours post-electroporation. […]
# Assay accuracy was assessed by evaluating the HCV polymerase inhibitor susceptibility of RTVs containing the NS5B region of well-characterized subtype 1a (H77) and 1b (Con1) reference sequences and subtype 1a and 1b reference sequences engineered by site-directed mutagenesis (SDM) to contain mutations that confer reduced susceptibility to inhibitors of HCV RdRp (FIG. 3) Inhibitor susceptibility data (IC50-FC and IC95-FC) were analyzed for concordance with phenotypic data reported in the scientific literature. […]
substance,measurement,value
interferon [INF],susceptibility as a function of the proportion of MT RTV within a mixture,not affected
